The values that follow come from patent publication US20250360126A1, “TARGETING AN ENZYME REQUIRED FOR ACUTE MYELOID LEUKEMIA” (Albert Einstein College of Medicine, priority 2023, published 2025).

Assay [1] has as its target T1, recombinant human TTLL4 catalytic domain (Homo sapiens, UniProt Q14679).
T1 construct: TTLL4 catalytic domain (composed of residues 561-1199); made in house; host or cells: E. coli
T1 sequence (Q14679 561-1199): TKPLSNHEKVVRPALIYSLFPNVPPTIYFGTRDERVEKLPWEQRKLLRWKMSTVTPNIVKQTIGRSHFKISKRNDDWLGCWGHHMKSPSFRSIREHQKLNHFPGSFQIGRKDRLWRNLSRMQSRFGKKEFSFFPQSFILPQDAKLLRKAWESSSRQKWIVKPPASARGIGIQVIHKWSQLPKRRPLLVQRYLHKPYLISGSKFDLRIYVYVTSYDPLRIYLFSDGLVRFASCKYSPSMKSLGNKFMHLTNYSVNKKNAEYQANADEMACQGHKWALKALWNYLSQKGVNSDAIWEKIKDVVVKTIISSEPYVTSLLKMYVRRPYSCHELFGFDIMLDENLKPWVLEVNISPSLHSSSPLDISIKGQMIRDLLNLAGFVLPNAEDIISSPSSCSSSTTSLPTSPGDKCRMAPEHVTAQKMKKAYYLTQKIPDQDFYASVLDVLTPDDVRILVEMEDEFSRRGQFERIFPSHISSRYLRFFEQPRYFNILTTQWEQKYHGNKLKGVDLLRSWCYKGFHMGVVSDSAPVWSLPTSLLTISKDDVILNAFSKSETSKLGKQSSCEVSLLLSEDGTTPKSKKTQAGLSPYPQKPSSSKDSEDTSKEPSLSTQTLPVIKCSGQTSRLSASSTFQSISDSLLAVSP
Put plainly: TTLL4 activity immunoassay (anti-glu immuno-detection of glutamylated Nap2 substrate). The assay is classed as biochemical. The conditions noted are these: 0.2 millimolar ATP, 1 millimolar glutamic acid, 30° C., 10 minutes, read-out: in vitro TTLL4 IC50. On the procedure:
To measure TTLL4 activity and inhibition by lead compounds, we used an immunoassay. The antibody against mono-glutamate-glutamylation was prepared by immunizing white rabbits with the following peptide: MY {Glu (Glu)} DDEEESEAQGPKC (based on studies published here: doi: 10.1016/S0091-679X (10) 95003-6). The serum was purified by cross-adsorption against a non-glutamylated peptide: MYEDDEEESEAQGPKC. The purified antibody was stored in PBS with 0.02% Preclin 300. The final ELISA titer from the purified antibodies against the glutamylated peptide was >1:512,000. These antibodies are noted as “anti-glu”.
To measure activity, recombinant human TTLL4 catalytic domain (composed of residues 561-1199) was produced in E. coli and purified via nickel-affinity and size exclusion column (Superdex 200) chromatography. Similarly, the glutamate-glutamylation substrate Nap2 (gene from Xenopus tropicalis) was produced in E. coli and purified via nickel-affinity size exclusion column (Superdex 200) chromatography. […] Intensity measurements were quantified with the Microar-ray Profile plugin for FIJI/ImageJ and analyzed with a 4-parameter model in Graphpad Prism v9.

Assay [2] deals with OCI-AML3 human cell line (degron-inducible NPM1c). In words: NPM1c degradation in OCI-AML3 NPM1c-degron cells, glutamate-glutamylation by Western blot. The assay is classed as cell-based. On the procedure: FIGS. 3A and 3B illustrate that TTLL4 catalyzes NPM1 and NPM1c glutamate-glutamylation. FIG. 3A is a Western blot of an AML3-NPM1c-degron cell line with a doxycycline (DOX)-inducible TTLL4 shRNA knockdown. Scrambled shRNA or TTLL4 shRNA cells were treated +/−DOX, resulting in loss of glutamate-glutamylation on both NPM1c-degron and NPM1 wild type proteins (top gel, +DOX). FIG. 3B is a summary of a qRT-PCR analysis of shTTLL4 cells treated with DOX.
A doxycycline-inducible TTLL4 shRNA was introduced to this cell line. TTLL4kd eliminated NPM1c glutamate-glutamylation and reduced cellular proliferation (FIGS. 3A, 3B, and 4A). In addition, CRISPR-Cas9 mediated knockout of TTLL4 in OCI-AML3 cells reduced colony formation in methylcellulose (FIG. 4B, methylcellulose colony forming assays are used to detect cell proliferation and hematopoietic/progenitor activity) and increased apoptosis (FIG. 4C).
In general terms: In western blotting, separated proteins are transferred to a membrane and probed.

Usually IC50 stands for the point on the concentration scale where inhibition reaches its midpoint. `O=C(Cn1c(=O)c(F)cn(C2CCCO2)c1=O)N1N=C(c2ccc(Cl)cc2)CC1c1ccco1` (stereo not drawn) [Candidate 2]: in assay [1], the half-maximal inhibitory concentration (IC50) came out at 40 µM.

Turning to `CC[C@H](C(=O)N1CCCC[C@H]1C(=O)O[C@H](CCc1ccc(OC)c(OC)c1)c1ccccc1OCC(=O)NCCCCCCOc1cccc2c1C(=O)N(C1CCC(=O)NC1=O)C2=O)c1cc(OC)c(OC)c(OC)c1` (stereo partly drawn) [dTAG-13], the “glutamate-glutamylation of the NPM1 wt protein after degradation of NPM1c” value in assay [2] was “loss of glutamate-glutamylation of the NPM1 wt protein”. On to `COc1ccc(-c2cc3c(SCC(=O)Nc4c(C)cc(C)cc4C)nccn3n2)cc1` [Candidate 1], for which the IC50 in assay [1] was determined as 9 µM.
